Columns and labels:
Aqueous solubility = assay type: physicochemical
From the text: By the term “effective amount” of a compound or property as provided herein is meant such amount as is capable of performing the function of the compound or property for which an effective amount is expressed. As will be pointed out below, the exact amount required will vary from process to process, depending on recognized variables such as the compounds employed and the processing conditions observed. Thus, it is not possible to specify an exact “effective amount.” However, an appropriate effective amount may be determined by one of ordinary skill in the art using only routine experimentation. Generally the concentration of the compounds will be, but not limited to, at least about 0.1% (e.g., at least 0.1%; for example in an aqueous solution), at least about 1% (e.g., at least 1%), preferably at least about 2% (e.g., at least 2%), preferably at least about 3% (e.g., at least 3%), preferably at least about 4% (e.g., at least 4%). […] However, higher concentrations than the limits shown could be obtained using solubilizing agents (e.g., DMSO of DMF) or chelating agents; for example, at least about 5% (e.g., at least 5%), preferably at least about 6% (e.g., at least 6%), preferably at least about 7% (e.g., at least 7%), preferably at least about 8% (e.g., at least 8%), preferably at least about 9% (e.g., at least 9%), and preferably at least about 10% (e.g., at least 10%). Concentrations lower than about 2% would require longer duration of exposure, such as the composition in a bait station to which the target insects have long term access to, thus increasing the total dose.

Drosophila suzukii = assay: Feeding test of D. suzukii adults with tyramine or M-tyramine sucrose solutions (fly mortality); assay type: in vivo; conditions: 7 days; for fly mortality, first and second experiments: 1% solution in 0.5 M sucrose; for mortality: 4% compound in 0.5 M sucrose
Method: Flies and sugars: Drosophila suzukii used in these experiments were from a colony maintained at 22±5° C. under a photoperiod of L:D 16:8 h and a relative humidity of 60±5% RH at the Horticultural Crops Research Unit, USDA ARS in Corvallis, Oreg. Wildtype flies collected from infested fruits in Corvallis, Oreg., were used to start the colony. Standard rearing methods and diet are described by Woltz et al. (Journal of Applied Entomology, 139: 759-770 (2015)). Newly emerged adult males and females were collected daily and maintained in cages with water and diet until they were specific ages for experimentation.
The chemical components were tyramine (98%, Sigma-Aldrich), N-methyl-tyramine (shortened name=M-tyramine), 95%, Combi-Blocks, Inc.), and sucrose (>99%, Fisher Scientific, Hampton, N.H.).
The effect of tyramine and M-tyramine formulations on fly mortality-I: Ten 5-day old flies (5 males and 5 females) were introduced into a plastic vial and given a tube (1.5 ml) containing different water-based solutions (FIG. 1). For the first experiment various pairs were tested (FIG. 2A): (a) Sucrose 0.5 M only; (b) Tyramine 0.1%+Sucrose 0.5 M (0.1% Tyramine); (c) Tyramine 1%+Sucrose 0.5 M (1% Tyramine); (d) M-Tyramine 0.1%+Sucrose 0.5 M (0.1% M-Tyramine); and (e) M-Tyramine 1%+Sucrose 0.5 M (1% M-Tyramine).
The effect of tyramine and M-tyramine formulations on fly mortality-II: The second experiment consisted of the following (FIG. 2B): (a) Sucrose 0.5 M only; (b) Tyramine 1%+Sucrose 0.5 M (1% Tyramine); (c) Tyramine 2%+Sucrose 0.5 M (2% Tyramine); (d) M-Tyramine 1%+Sucrose 0.5 M (1% M-Tyramine), and (e) M-Tyramine 2%+Sucrose 0.5 M (2% M-Tyramine).
The effect of tyramine and M-tyramine formulations on fly mortality-III: The third experiment consisted of the following (FIG. 2C): (a) Sucrose 0.5 M only; (b) Tyramine 2%+Sucrose 0.5 M (2% Tyramine); (c) Tyramine 4%+Sucrose 0.5 M (4% Tyramine); (d) M-Tyramine 2%+Sucrose 0.5 M (2% M-Tyramine); and (e) M-Tyramine 4%+Sucrose 0.5 M (4% M-Tyramine). Survivorship of flies was checked daily for 7 days. Each pair per experiment was replicated at least eight times.

fire ant = assay: Feeding of biogenic amines to fire ants (worker and queen mortality); assay type: in vivo; conditions: for fire ant worker mortality versus sucrose controls: biogenic amines all formulated at 1.0%
tawny crazy ant workers = assay: Pest ant specificity of tyramine using tawny crazy ant workers; assay type: in vivo

SMILES	aqueous solubility (upper limit) (Aqueous solubility; free base)	aqueous solubility (upper limit) (Aqueous solubility; salt form)	fly mortality, first and second experiments (Drosophila suzukii)	mortality (Drosophila suzukii) [%]	fire ant worker mortality versus sucrose controls (fire ant)	other results
CNCCc1ccc(O)cc1 [M-tyramine, N-methyl-tyramine]	~3.4%	about 10%	not statistically consistent	100		
NCCc1c[nH]cn1 [histamine]					no different than the sucrose controls	
NCCc1ccc(O)c(O)c1 [dopamine]					no different than the sucrose controls	
NCCc1c[nH]c2ccc(O)cc12 [serotonin]					no different than the sucrose controls	
NCCc1ccc(O)cc1 [tyramine]	about 1%	about 5%	not statistically consistent	100	significant fire ant worker mortality	mortality of tawny crazy ant workers versus controls (tawny crazy ant workers): did not result in mortality greater than the controls; fly mortality versus 0.5 M sucrose negative control (Drosophila suzukii; 0.1% solution in 0.5 M sucrose): not significantly different; mortality in small lab colonies (fire ant; tyramine fed to small lab fire ant colonies): worker and queen fire ant mortality; fire ant worker mortality (fire ant; workers fed 1.0, 0.1, and 0.01% wt(g)/vol(L)): significant mortality
NCC(O)c1ccc(O)cc1 (centres unmarked) [octopamine]					no different than the sucrose controls	

Source: patent publication US20210337791A1, “Methods For Killing Insects Such As Drosophila species” (The United States of America, as represented by the …, priority 2020, published 2021)
